Consider 15 compounds from patent US5159085A, “2-anilino phenylacetic acid derivatives as inhibitors of PLA2 and lipoxygenase” (American Home Products Corporation, priority 1991, dated 1992).

The term inhibition denotes the change of the read-out against control, counted positive when it falls. In general, ED50 refers to the dose that gives a 50% effect, or the effect in half of the subjects. Read a high ED50 as weaker potency. Broadly, the IC50 is the concentration that gives 50% inhibition.

Counter-ions that a name gives are not always drawn. Like-named read-outs stand apart in the source and are kept apart here.

The target of one assay is T1, human platelet PLA2 (Homo sapiens, UniProt P14555).
T1 construct: Semipurified human platelet acid extract PLA2; from tissue; host or cells: human platelets (semipurified acid extract)
T1 sequence (P14555 21-144): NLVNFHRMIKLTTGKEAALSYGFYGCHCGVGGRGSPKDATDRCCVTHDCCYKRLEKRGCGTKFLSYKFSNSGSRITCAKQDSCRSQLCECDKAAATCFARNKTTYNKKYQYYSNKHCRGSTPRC
The assay is described as follows: In vitro isolated phospholipase A2 assay, human platelet PLA2 (arachidonic acid release from 3H-AA E. coli substrate). In kind it is biochemical. Particulars: human platelet; for inhibition at 10 µM: negative values denote potentiation, read-out: % Inhibition at 10 μM HP.

Assay [1] addresses T2, human synovial fluid PLA2 (Homo sapiens, UniProt P14555).
T2 construct: Purified human synovial fluid; from tissue; host or cells: human synovial fluid
T2 sequence (P14555 21-144): T1 sequence (P14555 21-144)
The assay is described as follows: In vitro isolated phospholipase A2 assay, human synovial fluid PLA2. In kind it is biochemical. Particulars: 10 μM; human synovial fluid; negative values denote potentiation; read-out: % Inhibition at 10 μM HSF. As to the method: The compounds of the invention are tested in an in vitro isolated phospholipase A2 assay to determine the ability of the test compounds to inhibit the release of arachidonic acid from an arachidonic acid-containing substrate by the action of phospholipase A2 enzyme from human and non-human sources.
This assay is carried out as follows:
Into a 15 mL polypropylene tube are added the following:
*pre-incubate at room temperature 30 min prior to substrate addition.
^5 Stock 10 mM prepared in dimethyl sulfoxide. Make 1:2 dilution with
dimethyl sulfoxide and add 1 μ L to 100 μL assay tube.
^6 Two human PLA2 enzymes are used:
b) Purified human synovial fluid.
Incubate the 100 μL reaction mixture for 10 minutes at 37° C. in a shaking water bath. The reaction is terminated by the addition of 2 mL tetrahydrofuran, followed by vortexing. NH2 columns (100 μg/mL--Analytichem International) are conditioned with 0.5 mL tetrahydrofuran followed by 0.5 mL tetrahydrofuran/water (2 mL:0.1 mL, v/v).
The sample is loaded onto the columns and slowly drawn through them. The hydrolyzed arachidonic acid retained in the columns is eluted therefrom with 1 mL tetrahydrofuran/glacial acetic acid (2%). The arachidonic acid is transferred to scintillation vials and quantitated by β-counting analysis. A "total counts" sample is prepared by pipetting 25 μL ^3 H-arachidonate E. coli directly into a scintillation vial to which is added 1 mL tetrahydrofuran. 10 mL aquasol (scintillation cocktail) is added to all samples. [formula]

Assay [2] deals with paw edema induced by exogenous PLA2 (snake, A. piscivorus piscivorus). The assay is described as follows: In vivo PLA2 murine paw edema assay. Details: species or system mouse (male CD-1). Conditions: for ED50 at +10 min: mouse; for change in vivo at 1 mg/kg: Mus musculus, ip, 0.5 h; for % Change in Edema 30 min / change in vivo at 1 mg/kg: 30 min. The protocol: The ability of the compounds of the invention to inhibit paw edema induced by the exogenous administration of PLA2 is measured in the in vivo PLA2 murine paw edema assay.
(§1) The assay is carried out as follows:
Non-fasted, male CD-1 mice (8 weeks old; 31-36 grams) are placed in plastic boxes in groups of six. The right hind paw volume is measured using mercury plethysmography (zero time). […] A solution of purified PLA2, from the diamond back cotton mouth snake (A. piscivorus piscivorus) is prepared in saline at a concentration of 6 μg/ml. Fifty (50) μl (0.3 μg) of this PLA2 solution is injected subcutaneously into the right hind paw with a plastic 1 ml plastic syringe (27 gauge, 1" needle). Paw volume of the injected paw is measured again at 10 minutes, 30 minutes and 60 minutes after PLA2 injection. Animals are euthanized with CO2 at the completion of the study.
The paw edema is calculated by subtracting the zero time volume from the volume recorded at each time period. Mean paw edema for each treatment group is then calculated and expressed as (μl±S.E.). Drug effects are expressed as a percent change from control (vehicle) values. Statistical significance is determined by a one-way analysis of variance with LSD comparison to control (p<0.05). ED50 's are determined using repression analysis.

Assay [3] deals with LTB4 synthesis by rat glycogen-elicited polymorphonuclear leukocytes (lipoxygenase). The assay is described as follows: Inhibition of LTB4 synthesis by rat glycogen-elicited polymorphonuclear leukocytes (PMN). In kind it is cell-based, rat (female Wistar). Particulars: A 23187 and exogenous AA; for inhibition at 0.5 µM: negative value denotes potentiation.
Description: This is especially true with respect to 5,12-diHETE, which is also denoted as LTB4 [see Ford-Hitchinson, J. Roy. Soc. Med., 74, 831 (1981)]. Compounds which inhibit the PLA2 -mediated release of arachidonic acid thereby effectively prevent the oxidation of arachidonic acid to the various leukotriene products via the lipoxygenase cascade. Accordingly, the specificity of action of PLA2 inhibitors can be determined by the activity of test compounds in this assay, which measures the ability of compounds to inhibit the synthesis of LTB4 by rat glycogen-elicited polymorphonuclear leukocytes (PMN) in the presence of exogenous substrate.
as §1
(§2) Rat polymorphonuclear leukocytes (PMNs) are obtained from female Wistar rats (150-200 g) which receive an injection of 6% glycogen (10 ml i.p.). Rats are sacrificed 18-24 hours post injection by CO2 asphyxiation and the elicited cells are harvested by peritoneal lavage using physiological saline (0.9% NaCl). The exudate is centrifuged at 400×g for 10 minutes. The supernatant fluid is discarded and the cell pellet is resuspended to a concentration of 2.0×10^7 cells/ml in HBSS containing Ca^++ and Mg^++ and 10 μM L-cysteine.
(§3) To 1 ml aliquots of cell suspension, test drugs or vehicle are added, then preincubated at 37° C. for 10 minutes. A 23187 (1 μM), [^3 H]-AA (3.0 μCi/ml) and unlabeled AA (1 μM) are then added and the samples are further incubated for 10 minutes. The reaction is terminated by centrifugation and pelleting cells. Supernatants are then analyzed by HPLC analysis on a 15 cm×4.6 mm ID supelcosil LC-18 (Supelco)(3M) column, using a two solvent system at a flow rate of 1.4 ml total flow as follows:
Gradient: (system is equillibrated with Solvent A)
(§4) Percent solvent changes are accomplished in a linear fashion.
(§5) Injections: 150 μl of each supernatant is injected directly onto column and ^3 H arachidonic acid metabolites are monitored using an on-line radioactivity detector (Ramona, IN/US, Fairfield, NJ).
(§6) Standards: 10^4 -2.0×10^4 dpm of eicosanoids of interest are injected in 90 μl EtOH cocktail.
(§7) Co-chromatography with standard [^3 H] leukotriene B4 (LTB4) in medium of stimulated PMN exposed to drug is compared to that found in medium of stimulated cells exposed to no drug, generating percent inhibition.
(§8) Results are expressed as percent inhibition at a given compound dose or as an IC50 value.

Assay [4] deals with TxB2 synthesis (cyclooxygenase) by rat glycogen-elicited polymorphonuclear leukocytes. The assay is described as follows: Inhibition of TxB2 synthesis by rat glycogen-elicited PMN (cyclooxygenase). It is filed as cell-based, rat (female Wistar). Conditions: for inhibition at 0.5 µM: negative values denote potentiation of cyclooxygenase; for IC50: rat PMN, read-out: IC50 (TxB2 synthesis). As to the method:
as §2, §3, §4, §5, §6, §7, §8
In this assay, the procedure of Example 19 is carried out as described. However, in order to determine cyclooxygenase activity, the samples are co-chromatographed with authentic reference [^3 H]-TxB2.
The results are calculated as in Example 19 and presented below: […]

As to `O=C1Cc2cc(OCc3ccc4ccc(Cl)cc4n3)ccc2N1c1c(Cl)cccc1Cl` [Example 18, 1-(2,6-Dichlorophenyl)-5-[7-chloro-2-(quinolinylmethoxy)]-1,3-dihydro-2H-indol-2-one], the inhibition at 10 µM turned out to be 2.2% on human platelet PLA2 and 5.1% in assay [1].
Regarding Luffarrellolide [reference compound], in assay [2] (p.o., standard drugs), the “ED50 at +10 min” value was “Not Active”.
Regarding `O=C1Cc2cc(OCc3ccc4ccccc4n3)ccc2N1c1ccccc1` [Example 15, 1-Phenyl-5-(2-quinolinylmethoxy)-1,3-dihydro-2H-indol-2-one], the inhibition at 0.5 µM in assay [3] (Leukocyte) is 40%; in assay [4] (Rattus norvegicus, Leukocyte), -9%. In addition, the inhibition at 10 µM in assay [1] was -24%.
`CONC(=O)Cc1cc(OCc2ccc3ccccc3n2)ccc1Nc1c(Cl)cccc1Cl` [Example 12]: the inhibition at 0.5 µM in assay [3] (Leukocyte) is 70%. Moreover, the inhibition at 0.5 µM in assay [4] (Rattus norvegicus, Leukocyte) is -2%. The inhibition at 10 µM in assay [1] was -41.5%. In assay [2] (10 mg/kg i.p.), the “% Change in Edema 10 min” value is recorded as -15%, the “% Change in Edema 30 min” value is given as -45% and the “% Change in Edema 60 min” value is recorded as -28%. Moreover, in assay [2] (50 mg/kg p.o.), the “% Change in Edema 10 min” value was -2%, the “% Change in Edema 30 min” value was -36% and the “% Change in Edema 60 min” value is given as -22%.
Turning to `C[C@@H]1C[C@H]2[C@@H]3CCC4=CC(=O)C=C[C@]4(C)[C@@]3(F)[C@@H](O)C[C@]2(C)[C@@]1(O)C(=O)CO` [Dexamethasone, reference compound], the “ED50 at +10 min” value in assay [2] (p.o. 3 hr, standard drug) was 10 mg/kg.
Regarding `COc1ccc2cc([C@H](C)C(=O)O)ccc2c1` [Naproxen, reference compound], the “ED50 at +10 min” value in assay [2] (p.o., standard drugs) was 18 mg/kg.
Regarding `Cn1c(COc2ccc(Nc3c(Cl)cccc3Cl)c(CC(=O)O)c2)nc2ccccc21` [Example 11, acetic acid], the inhibition at 0.5 µM in assay [3] (Leukocyte) is -6%; in assay [4] (Rattus norvegicus, Leukocyte), -8%. For the same compound, the inhibition at 10 µM in assay [1] came out at 33.3%.
Take `COC(=O)Cc1cc(OCc2ccc3ccc(Cl)cc3n2)ccc1Nc1c(Cl)cccc1Cl` [Example 5, 5-[(7-Chloro-2-quinolyl)methoxy]-2-[(2,6-dichlorophenyl)amino]benzene acetic acid methyl ester]: the inhibition at 0.5 µM in assay [3] (Leukocyte) was found to be 56%; in assay [4] (Rattus norvegicus, Leukocyte), 0%. Also, the inhibition at 10 µM in assay [3] (Leukocyte, at 10 μM) is 95%; in assay [4] (Rattus norvegicus, Leukocyte, at 10 μM) it was 27%; at human platelet PLA2, -5.3%; in assay [1], -127%.
With `O=C1Cc2cc(OCc3ccc4ccccc4n3)ccc2N1c1c(Cl)cccc1Cl` [Example 13], the inhibition at 0.5 µM in assay [3] (Leukocyte) turned out to be 89%; in assay [4] (Rattus norvegicus, Leukocyte), 10%. At human platelet PLA2 ("at 50 SM"), the “% Inhibition HP” value is recorded as 12.5%. In addition, in assay [1], the inhibition at 10 µM was -11%.
Take `O=C(O)Cc1cc(OCc2ccc3ccccc3n2)ccc1Nc1c(Cl)cccc1Cl` [Example 4, 2-[(2,6-Dichlorophenyl)amino]-5-(2-quinolinylmethoxy)benzene acetic acid 2-amino-2-(hydroxymethyl)-1,3-propanediol salt (1:1)]: the IC50 in assay [4] amounted to 3.7 µM.
Turning to `COC(=O)Cc1cc(OCc2nc3ccccc3n2C)ccc1Nc1c(Cl)cccc1Cl` [Example 10, 2-[(2,6-Dichlorophenyl)amino]-5-[(1-methyl-1H-benzimidazol-2-yl)methoxy]benzene acetic acid methyl ester], in assay [3] (Leukocyte), the inhibition at 0.5 µM came to 65%. For the same compound, in assay [4] (Rattus norvegicus, Leukocyte), the inhibition at 0.5 µM was 32%. Further, in assay [2] (1 mg/kg i.p.), the “% Change in Edema 10 min” value was -29% and the change in vivo at 1 mg/kg was -20%. Further, in assay [2] (10 mg/kg i.p.), the “% Change in Edema 10 min” value is on record as -49% and the “% Change in Edema 30 min” value was -36%.
On to `O=C(O)Cc1cc(OCc2ccc3ccccc3n2)ccc1Nc1ccccc1` [Example 16, 2-(Phenylamino)-5-(2-quinolinylmethoxy)benzene acetic acid], for which the inhibition at 0.5 µM in assay [3] (Leukocyte) was 90%; in assay [4] (Rattus norvegicus, Leukocyte), 10%. For the same compound, the inhibition at 10 µM is 14.2% on human platelet PLA2 and -4.3% in assay [1].
For `COc1cccc2c1cc([N+](=O)[O-])c1c(C(=O)O)cc3c(c12)OCO3` [Aristolochic Acid, reference compound], the “ED50 at +10 min” value in assay [2] (p.o., standard drugs) is “Not Active”.
Consider `O=C(O)Cc1cc(OCc2ccc3ccccc3n2)ccc1Nc1c(Cl)cccc1Cl` [Example 3, 2-[(2,6-Dichlorophenyl)amino]-5-(2-quinolinylmethoxy)benzene acetic acid sodium salt], for which the IC50 in assay [3] (acetic acid sodium salt) stood at 0.02 µM. The IC50 in assay [4] (acetic acid sodium salt) is > 1 µM. The inhibition at 10 µM in assay [1] came to 21.7%. Further, in assay [2] (10 mg/kg i.p.), the “% Change in Edema 10 min” value is “+12%”, the “% Change in Edema 30 min” value was -10% and the “% Change in Edema 60 min” value is listed as “+12%”.
For the compound `COC(=O)Cc1cc(OCc2ccc3ccccc3n2)ccc1Nc1c(Cl)cccc1Cl` [Example 1, 2-[(2,6-Dichlorophenyl)amino]-5-(2-quinolinylmethoxy)-benzene acetic acid methyl ester ethanedioate (1:1)], the inhibition at 0.5 µM in assay [3] (Leukocyte) was determined as 96%. For the same compound, in assay [4] (Rattus norvegicus, Leukocyte), the inhibition at 0.5 µM was 4%. In addition, in assay [2] (1 mg/kg i.p.), the “% Change in Edema 3 min” value was -10%, the “% Change in Edema 10 min” value is -31% and the change in vivo at 1 mg/kg was -23%. Besides, in assay [2] (10 mg/kg i.p.), the “% Change in Edema 3 min” value is reported as -39%, the “% Change in Edema 10 min” value was -77% and the “% Change in Edema 30 min” value is reported as -37%.
